Test results as given in US11897862B2 (Gilead Sciences, Inc., priority 2022, dated 2024).

What was measured:
Assay type in all cases: cell-based
[1] = biological target: T1, IKZF2 (Homo sapiens, UniProt Q96SW2+Q9UKS7); assay: Human whole blood IKZF2 degradation (flow cytometry, CD4/CD25/Foxp3+ Treg cells); parameters: endogenous in cells; settings: 24 hrs incubation, IKZF2 MFI in CD4/CD25/Foxp3+ Treg cells, flow cytometry; for DC50: read-out: IKZF2 EC50
Outline: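 Fresh healthy-donor human whole blood stimulated with CD3/CD28 activator and serially diluted compound for 24 hrs at 37° C. IKZF2 MFI in CD4/CD25/Foxp3+ Tregs (IKZF1 MFI in CD4+ T cells) measured by flow cytometry after RBC lysis, fixation, permeabilization. EC50 and Dmax versus DMSO wells.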
Target sequence in this assay (Q9UKS7 whole entry): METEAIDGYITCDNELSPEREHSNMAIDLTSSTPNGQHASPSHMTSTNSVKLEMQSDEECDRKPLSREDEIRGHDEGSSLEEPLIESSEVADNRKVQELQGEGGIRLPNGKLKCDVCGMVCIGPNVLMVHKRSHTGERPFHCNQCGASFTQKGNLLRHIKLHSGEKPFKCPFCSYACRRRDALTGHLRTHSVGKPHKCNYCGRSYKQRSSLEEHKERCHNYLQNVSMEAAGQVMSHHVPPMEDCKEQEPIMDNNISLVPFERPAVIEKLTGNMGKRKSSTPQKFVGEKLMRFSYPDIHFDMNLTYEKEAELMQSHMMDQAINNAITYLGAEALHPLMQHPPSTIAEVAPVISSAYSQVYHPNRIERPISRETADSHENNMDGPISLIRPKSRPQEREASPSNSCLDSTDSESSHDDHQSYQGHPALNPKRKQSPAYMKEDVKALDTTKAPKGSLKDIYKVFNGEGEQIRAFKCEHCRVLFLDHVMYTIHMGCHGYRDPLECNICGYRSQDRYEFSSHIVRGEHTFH
Target sequence in this assay (Q96SW2 whole entry): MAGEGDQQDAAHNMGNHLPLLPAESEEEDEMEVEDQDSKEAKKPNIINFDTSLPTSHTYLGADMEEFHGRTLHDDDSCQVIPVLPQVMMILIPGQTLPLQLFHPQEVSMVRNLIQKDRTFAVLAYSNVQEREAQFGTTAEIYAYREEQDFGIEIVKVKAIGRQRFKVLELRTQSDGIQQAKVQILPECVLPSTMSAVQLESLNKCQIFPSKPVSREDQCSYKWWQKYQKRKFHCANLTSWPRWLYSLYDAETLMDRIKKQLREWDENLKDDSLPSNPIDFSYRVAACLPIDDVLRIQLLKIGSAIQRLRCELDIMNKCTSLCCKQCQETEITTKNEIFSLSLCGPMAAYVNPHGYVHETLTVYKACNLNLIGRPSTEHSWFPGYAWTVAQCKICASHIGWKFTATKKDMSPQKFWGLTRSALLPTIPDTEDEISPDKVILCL
Target sequence in this assay (Q16531 whole entry partner): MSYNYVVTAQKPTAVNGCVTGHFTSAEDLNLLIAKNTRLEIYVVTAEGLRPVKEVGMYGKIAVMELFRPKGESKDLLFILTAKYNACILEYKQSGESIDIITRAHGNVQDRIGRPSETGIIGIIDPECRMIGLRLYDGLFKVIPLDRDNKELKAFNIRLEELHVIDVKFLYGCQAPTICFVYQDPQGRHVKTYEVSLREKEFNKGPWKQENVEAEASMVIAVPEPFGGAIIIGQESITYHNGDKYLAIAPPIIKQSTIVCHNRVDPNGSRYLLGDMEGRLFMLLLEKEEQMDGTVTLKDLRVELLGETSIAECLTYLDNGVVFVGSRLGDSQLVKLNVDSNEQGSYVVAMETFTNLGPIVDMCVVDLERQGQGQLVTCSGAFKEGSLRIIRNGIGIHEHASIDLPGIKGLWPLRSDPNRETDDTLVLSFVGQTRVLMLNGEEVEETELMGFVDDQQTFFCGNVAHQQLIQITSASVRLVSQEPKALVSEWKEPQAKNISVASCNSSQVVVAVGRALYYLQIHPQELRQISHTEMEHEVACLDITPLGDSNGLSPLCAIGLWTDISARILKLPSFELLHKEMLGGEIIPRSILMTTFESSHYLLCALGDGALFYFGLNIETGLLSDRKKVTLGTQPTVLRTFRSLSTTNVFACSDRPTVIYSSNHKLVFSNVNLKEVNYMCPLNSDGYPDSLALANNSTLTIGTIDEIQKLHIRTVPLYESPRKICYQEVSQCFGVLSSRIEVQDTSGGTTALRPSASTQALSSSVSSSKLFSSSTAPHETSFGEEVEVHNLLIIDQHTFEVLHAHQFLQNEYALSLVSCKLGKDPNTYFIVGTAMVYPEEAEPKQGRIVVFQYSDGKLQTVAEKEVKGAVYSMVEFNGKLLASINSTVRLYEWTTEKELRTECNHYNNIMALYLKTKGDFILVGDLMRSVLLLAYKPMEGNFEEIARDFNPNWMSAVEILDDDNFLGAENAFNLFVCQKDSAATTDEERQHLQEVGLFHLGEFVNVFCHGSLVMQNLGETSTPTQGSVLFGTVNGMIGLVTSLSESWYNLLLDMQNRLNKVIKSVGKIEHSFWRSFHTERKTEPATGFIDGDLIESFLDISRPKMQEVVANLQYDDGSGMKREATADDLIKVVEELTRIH

[2] = biological target: T1, IKZF2; assay: HEK293 IKZF2 degradation kinetics (HiBiT, timepoints 1-24 h); parameters: expressed in transfected cells; settings: for kinact: HEK293, IKZF2, timepoints 1, 2, 3, 4.5 and 24 hour, read-out: Maximum degradation rate Kinact (converted)
Procedure: The assay technology and principles for evaluating IKZF2 degradation kinetics in HEK293 cells was identical to the HEK293 degradation assay as described above. Additional details are briefly described below.
On Day 1, Cells were grown and induced the same as described above. On Days 2 and 3, compounds for testing were dispensed via ECHO and cells were lifted and plated into compound-spotted assay plates as above. Plates were returned to the 37° C. incubator until addition of Nano-Glo lytic reagent at 1, 2, 3, 4.5, and 24 hour timepoints. At these timepoints, plates were read on Envision reader as above.
All raw data was normalized to DMSO control (final concentration: 0.5%) wells as POC and plotted out as a function of time to generate the degradation rate constant (K) value. The maximum degradation rate (Kinact) was determined by plotting the K value as a function of concentration for each compound tested. Kinact values are shown in Table 25 and the degradation rate plots as well as timecourse of degradation are shown for select compounds in FIG. 1A, FIG. 1B, FIG. 2A and FIG. 2B.
Target sequence in this assay (Q9UKS7 1-500 isoform Q9UKS7-2): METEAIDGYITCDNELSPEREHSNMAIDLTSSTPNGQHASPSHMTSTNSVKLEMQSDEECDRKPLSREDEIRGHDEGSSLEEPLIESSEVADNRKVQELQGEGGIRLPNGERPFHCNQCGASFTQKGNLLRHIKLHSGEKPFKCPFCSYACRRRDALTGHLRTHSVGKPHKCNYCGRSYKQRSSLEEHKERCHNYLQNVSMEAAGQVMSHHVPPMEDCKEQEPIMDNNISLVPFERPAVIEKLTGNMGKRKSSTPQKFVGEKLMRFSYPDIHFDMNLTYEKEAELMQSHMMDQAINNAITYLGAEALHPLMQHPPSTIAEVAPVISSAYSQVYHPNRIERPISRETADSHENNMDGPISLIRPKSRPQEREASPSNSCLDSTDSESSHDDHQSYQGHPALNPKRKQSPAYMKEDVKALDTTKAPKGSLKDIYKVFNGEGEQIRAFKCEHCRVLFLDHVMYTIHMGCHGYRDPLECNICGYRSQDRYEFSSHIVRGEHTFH
Target sequence in this assay (Q96SW2 whole entry): as the sequence (Q96SW2 whole entry) above
Target sequence in this assay (Q16531 whole entry partner): as the sequence (Q16531 whole entry partner) above

[3] = biological target: T1, IKZF2; assay: HEK293 HiBiT in vitro degradation of IKZF2; parameters: expressed in transfected cells; settings: for Dmax: HEK293, HEK293 HiBiT, maximum degradation at the highest concentration tested; for DC50: HEK293 HiBiT, 18-24 hr incubation, normalized to DMSO control, read-out: IKZF2 EC50
Outline: (§1)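 Dox-inducible ([…] final, overnight) HEK293 Flp-In T-REx, single-copy target-HiBiT C-terminal fusion; compound serial dilution, 18-24 h, 37 °C; lytic Nano-Glo luminescence; EC50, Dmax.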
Target sequence in this assay (Q9UKS7 1-500 isoform Q9UKS7-2): as the sequence (Q9UKS7 1-500 isoform Q9UKS7-2) above
Target sequence in this assay (Q96SW2 whole entry): as the sequence (Q96SW2 whole entry) above
Target sequence in this assay (Q16531 whole entry partner): as the sequence (Q16531 whole entry partner) above

[4] = biological target: T2, IKZF1 (Homo sapiens, UniProt Q13422+Q96SW2); assay: HEK293 HiBiT in vitro degradation of IKZF1; settings: for DC50: HEK293 HiBiT, 18-24 hr incubation, normalized to DMSO control, read-out: IKZF1 EC50; for Dmax: HEK293, HEK293 HiBiT, maximum degradation at the highest concentration tested
T2 construct: expressed in transfected cells
Outline: as §1

T2 sequence (Q13422 whole entry): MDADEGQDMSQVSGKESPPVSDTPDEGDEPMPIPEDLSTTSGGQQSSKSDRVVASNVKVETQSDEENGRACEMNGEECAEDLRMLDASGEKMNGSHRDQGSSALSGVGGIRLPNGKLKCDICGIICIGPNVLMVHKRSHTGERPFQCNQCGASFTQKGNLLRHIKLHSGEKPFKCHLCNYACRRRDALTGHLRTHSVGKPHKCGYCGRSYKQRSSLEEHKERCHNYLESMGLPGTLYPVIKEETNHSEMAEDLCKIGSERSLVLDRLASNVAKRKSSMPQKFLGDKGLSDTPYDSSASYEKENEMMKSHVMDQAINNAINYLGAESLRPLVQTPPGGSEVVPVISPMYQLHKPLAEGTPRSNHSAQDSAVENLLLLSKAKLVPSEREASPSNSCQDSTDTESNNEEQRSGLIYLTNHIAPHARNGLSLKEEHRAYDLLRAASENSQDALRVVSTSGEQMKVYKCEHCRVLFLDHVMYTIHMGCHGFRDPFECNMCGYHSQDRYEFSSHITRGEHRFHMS
T2 sequence (Q96SW2 whole entry): as the sequence (Q96SW2 whole entry) above
T2 sequence (Q16531 whole entry partner): as the sequence (Q16531 whole entry partner) above

Row | Compound | Dmax [1] [%] | DC50 [1] [nM] | kinact [2] [s⁻¹] | Dmax [3] [%] | DC50 [3] [nM] | DC50 [4] [nM] | Dmax [4] [%] | speed of IKZF2 degradation compared with Reference Compounds A-1, B-3, B-4, C-1 ([2]; HEK293)
1 | O=C1CCC(N2Cc3cc(O[C@H]4CCCC[C@@H]4NCc4ccccc4)ccc3C2=O)C(=O)N1 (stereo partly shown) [Example B-3] |  |  | 5.56e-05 | 84 |  |  |  | 
2 | O=C1CCC(N2Cc3c(ccc(C[C@H]4OCCC[C@@H]4NC4CCC(C(F)(F)F)CC4)c3F)C2=O)C(=O)N1 (single isomer, unassigned) [Example 257] | 93 | 5 | 0.000133 | 99 | 3 | 69 | 34 | 
3 | O=C1CCC(N2Cc3cc(N[C@H]4CCCC[C@@H]4NCc4ccccc4)ccc3C2=O)C(=O)N1 (stereo partly shown) [Example C-1] |  |  | 8.33e-06 | 64 |  |  |  | 
4 | O=C1CCC(N2Cc3cc(C[C@H]4CCCC[C@@H]4NC4CCCCC4)ccc3C2=O)C(=O)N1 (stereo partly drawn) [Example 53, 3-(5-(((1R,2S)-2-(cyclohexylamino)cyclohexyl)methyl)-1-oxoisoindolin-2-yl)piperidine-2,6-dione] | 96 | 4 | 0.000147 | 96 | 3 | > 1000 |  | 
5 | O=C1CCC(N2Cc3cc(C[C@H]4CCCC[C@@H]4NCc4ccccc4)ccc3C2=O)C(=O)N1 (stereo partly drawn) [Example 2, 3-(5-(((1R,2S)-2-(benzylamino)cyclohexyl)methyl)-1-oxoisoindolin-2-yl)piperidine-2,6-dione] |  |  | 0.000147 | 88 | 18 | > 10000 |  | faster degradation of IKZF2
6 | O=C1CCC(N2Cc3c(ccc(C[C@H]4CCCC[C@@H]4NC4CCOCC4)c3F)C2=O)C(=O)N1 (stereo partly shown) [Example 116] | 89 | 1 | 0.00015 | 98 | 2 | 44 | 34 | 

Results, then the molecule that gave them:

Row | Dmax [1] [%] | DC50 [1] [nM] | kinact [2] [s⁻¹] | Dmax [3] [%] | DC50 [3] [nM] | DC50 [4] [nM] | Dmax [4] [%] | speed of IKZF2 degradation compared with Reference Compounds A-1, B-3, B-4, C-1 ([2]; HEK293) | Compound
7 | 99 | 8 | 0.000106 | 96 | 6 | > 1000 |  |  | O=C1CCC(N2Cc3c(ccc(C[C@H]4OCCC[C@@H]4NC4CCCCC4)c3F)C2=O)C(=O)N1 (stereo partly shown) [Example 181]
8 | 95 | 3 | 0.000139 | 98 | 2 | 62 | 39 |  | O=C1CCC(N2Cc3c(ccc(C[C@H]4CCCC[C@@H]4NC4CCCC4)c3F)C2=O)C(=O)N1 (stereo partly drawn) [Example 87, 3-(5-(((1R,2S)-2-(cyclopentylamino)cyclohexyl)methyl)-4-fluoro-1-oxoisoindolin-2-yl)piperidine-2,6-dione]
9 |  |  | 0.000111 | 94 | 7 | > 1000 |  |  | O=C1CC[C@@H](N2Cc3c(ccc(C[C@H]4OCCC[C@@H]4N[C@H]4CC[C@H](F)CC4)c3F)C2=O)C(=O)N1 (single isomer, unassigned) [Example 373]
